Tests used:
[1] = system: S. cerevisiae strain AD2Δ (native wild-type ScLDM); assay: Broth microdilution drug susceptibility assay (MIC80), host strain AD2Δ; assay type: cell-based; settings: Saccharomyces cerevisiae; strain AD2Δ; 48 h, 30 °C, pH 6.8; mean (± SEM), n = 3; read-out: MIC80
Protocol: Yeast strains used in this study (Supplementary Table S1) were prepared using the AD2Δ strain of S. cerevisiae as a host, using an established protocol. AD2Δ is hypersensitive to xenobiotics due to the deletion of seven major ABC transporters, including those responsible for the efflux of azole drugs. It is also deleted of the PDR3 transcriptional regulator, but contains the gain-of-function Pdr1-3 transcriptional regulator mutation that leads to constitutive overexpression from the PDR5 locus.
(§1) Azole susceptibility was measured as the mean drug concentration required to inhibit 80% of yeast growth (MIC80) compared to a non-drug control, using a standard broth microdilution assay. Serial dilutions of short- (FLC and VCZ), medium- (VT-1161), and long-tailed (ITC and PCZ) azole drugs, and the control drugs micafungin (MCF) and amphotericin B (AMB), were prepared in a 96-well microtiter plate in complete synthetic media lacking uracil, buffered to pH 6.8 [34]. Control and test cells were seeded at an optical density of 600 nm (OD600) of 0.005 (~1.5 × 10^4 colony forming units). After incubation for 48 h at 30 °C with constant agitation (200 rpm), the OD600 nm of each well was measured using a Synergy 2 multi-mode plate reader (BioTek Instruments, Winooski, VT, USA). The experiment was repeated three times (a total of nine measurements for the response of each strain to each drug). GraphPad Prism 5.0 software was used for statistical analysis, using a one-way analysis of variance with a Bonferroni post-hoc test. The statistical significance of comparisons was accepted when p < 0.05.

[2] = system: S. cerevisiae strain AD3Δ ScErg11 (AD3Δ) overexpressing wild-type ScLDM6×His; assay: Broth microdilution drug susceptibility assay (MIC80), strain AD3Δ ScErg11; assay type: cell-based, Saccharomyces cerevisiae; settings: strain AD3Δ; for MIC80: Saccharomyces cerevisiae, 48 h, 30 °C, pH 6.8, mean (± SEM), n = 3, read-out: MIC80; for MIC80/Relative Amount of ScLDM6×His: relative expression 1
Protocol: (§2) The native ScERG11 gene in yeast cells containing mutant ScERG11-6×His constructs in the PDR5 locus was disrupted by homologous recombination with a cassette encoding the His1 selection marker and sequences homologous with the regions bordering the endogenous ScERG11 ORF to create strains AD3Δ ScErg11 Y140H, AD3Δ ScErg11 I471T and AD3Δ ScErg11Y140H I471T [43]. Transformants were selected on SD-His agar plates incubated at 30 °C for 48–72 h. Genomic DNA was extracted, and DNA sequencing as above was used to confirm deletion of the native ERG11. Strain AD3Δ ScErg11 (denoted as AD3Δ), which overexpresses wild-type ScLDM6×His from the PDR5 locus and has the native ScERG11 gene disrupted, was used as a control strain [43].
as §1

[3] = system: S. cerevisiae strain AD3Δ ScErg11 Y140H expressing ScLDM6×His Y140H; assay: Broth microdilution drug susceptibility assay (MIC80), strain AD3Δ ScErg11 Y140H; assay type: cell-based, Saccharomyces cerevisiae; settings: for MIC80: Saccharomyces cerevisiae, 48 h, 30 °C, pH 6.8, mean (± SEM), n = 3; for MIC80 / MIC80/Relative Amount of ScLDM6×His / fold-resistance based on the relative amount of recombinant enzyme compared with strain AD3Δ: strain Y140H; for MIC80/Relative Amount of ScLDM6×His / fold-resistance based on the relative amount of recombinant enzyme compared with strain AD3Δ: relative expression 0.74
Protocol: as §2, §1

[4] = system: S. cerevisiae strain AD3Δ ScErg11 I471T expressing ScLDM6×His I471T; assay: Broth microdilution drug susceptibility assay (MIC80), strain AD3Δ ScErg11 I471T; assay type: cell-based, Saccharomyces cerevisiae; settings: for MIC80: Saccharomyces cerevisiae, 48 h, 30 °C, pH 6.8, mean (± SEM), n = 3; for MIC80 / MIC80/Relative Amount of ScLDM6×His / fold-resistance based on the relative amount of recombinant enzyme compared with strain AD3Δ: strain I471T; for increased susceptibility compared with AD3Δ: strain AD3Δ ScErg11 I471T, not corrected for expression; for MIC80/Relative Amount of ScLDM6×His / fold-resistance based on the relative amount of recombinant enzyme compared with strain AD3Δ: relative expression 0.51
Protocol: as §2, §1

[5] = system: S. cerevisiae strain AD3Δ ScErg11 Y140H I471T expressing ScLDM6×His Y140H I471T; assay: Broth microdilution drug susceptibility assay (MIC80), strain AD3Δ ScErg11 Y140H I471T; assay type: cell-based, Saccharomyces cerevisiae; settings: for MIC: Saccharomyces cerevisiae, strain Y140H + I471T, 48 h, 30 °C, pH 6.8, mean (± SEM), n = 3; for resistance conferred, relative expression taken into account: ScLDM6×His Y140H I471T (0.41 of wild-type) vs AD3Δ; for MIC80/Relative Amount of ScLDM6×His / fold-resistance based on the relative amount of recombinant enzyme compared with strain AD3Δ: strain Y140H+I471T, relative expression 0.41
Protocol: as §2, §1

[6] = system: C. albicans strain SC5314; assay: Agarose disk diffusion assay, control strain SC5314; assay type: cell-based, Candida albicans; settings: for effect of Mdr1 inhibitor MCC1189 on azole susceptibility: SC5314, MCC1189 at 6 µM in the assay medium; for effect of Cdr1p inhibitor RC21v3 on azole susceptibility: SC5314, RC21v3 at 6 µM in the assay medium
Protocol: (§3) Agarose diffusion assays were carried out as described previously using the Darlington strain of C. albicans (Pfizer Ltd., Sandwich, UK) and the control C. albicans database strain SC5314, which is not resistant to azoles. The Cdr1p-specific inhibitor RC21v3 and the CaMdr1p-specific inhibitor MCC1189 (MicroCombiChem, Wiesbaden, Germany), included in the assay medium at 6 µM, were used to investigate the contribution of efflux pumps to azole resistance in the Darlington strain [49, 50, 51].

[7] = system: C. albicans Darlington strain; assay: Agarose disk diffusion assay, Darlington strain; assay type: cell-based, Candida albicans; settings: for effect of Mdr1 inhibitor MCC1189 on azole susceptibility: MCC1189 at 6 µM in the assay medium; for effect of Cdr1p inhibitor RC21v3 on azole susceptibility: RC21v3 at 6 µM in the assay medium; for agarose diffusion susceptibility: no efflux pump inhibitor
Protocol: as §3

[8] = target: wild-type and Y140F/H mutants of ScLDM6×His; parameters: method as in earlier work; settings: no significant differences, ref 5 (supplement; Sagatova et al. 2016); cited from earlier work
[9] = system: Phakopspora pachyrhizi SDM Y131F I475T isolates; parameters: method as in PMID 23589453; settings: isolates from soybean plants in Brazil; cited from earlier work

| SMILES | MIC80 [1] | MIC80 [2] | MIC80/Relative Amount of ScLDM6×His [2] | MIC80 [3] | MIC80/Relative Amount of ScLDM6×His [3] | fold-resistance based on the relative amount of recombinant enzyme compared with strain AD3Δ [3] | MIC80 [4] | increased susceptibility compared with AD3Δ [4] | MIC80/Relative Amount of ScLDM6×His [4] | fold-resistance based on the relative amount of recombinant enzyme compared with strain AD3Δ [4] | MIC [5] | resistance conferred, relative expression taken into account [5] | MIC80/Relative Amount of ScLDM6×His [5] | fold-resistance based on the relative amount of recombinant enzyme compared with strain AD3Δ [5] | effect of Mdr1 inhibitor MCC1189 on azole susceptibility [6] | effect of Cdr1p inhibitor RC21v3 on azole susceptibility [6] | effect of Mdr1 inhibitor MCC1189 on azole susceptibility [7] | effect of Cdr1p inhibitor RC21v3 on azole susceptibility [7] | agarose diffusion susceptibility [7] | resistance conferred by the double mutation Y131F I475T [9] | further results |
| --- | --- | --- | --- | --- | --- | --- | --- | --- | --- | --- | --- | --- | --- | --- | --- | --- | --- | --- | --- | --- | --- |
| CC[C@@H]([C@H](C)O)n1ncn(-c2ccc(N3CCN(c4ccc(OC[C@@H]5CO[C@@](Cn6cncn6)(c6ccc(F)cc6F)C5)cc4)CC3)cc2)c1=O [PCZ, Posaconazole] | 0.16 µM | 0.423 µM | 0.423 µM | 0.33 µM | 0.445 µM | 1.1 × | 0.27 µM | 1.6 fold | 0.527 µM | 1.3 × | 0.265 µM | 1.5 fold | 0.646 µM | 1.5 × | no effect on susceptibility | increased susceptibility | no effect on susceptibility | increased susceptibility | resistant | – | susceptibility compared with AD3Δ cells ([3]; cells overexpressing ScLDM6×His Y140H, not corrected for expression): slightly increased susceptibility; Kd [8]: ~500 nM |
| O[C@@](Cn1cnnn1)(c1ccc(F)cc1F)C(F)(F)c1ccc(-c2ccc(OCC(F)(F)F)cc2)cn1 [VT-1161] | 0.0288 µM | 0.0754 µM | 0.0754 µM | 0.116 µM | 0.157 µM | 2.1 × | 0.0346 µM | 2.2 fold | 0.0679 µM | 0.90 × | 0.0676 µM | 2.2 fold | 0.165 µM | 2.2 × | did not alter the susceptibility | did not alter the susceptibility | did not alter the susceptibility | did not alter the susceptibility | resistant | – | resistance conferred, relative amount of recombinant ScLDM6×His taken into account ([3]; ScLDM6×His Y140H vs AD3Δ): 2.1 fold; resistance of cells containing the Y140H mutation in ScLDM6×His ([3]; discussion, significant but modest): 2 fold; MIC80 higher than strain AD3Δ ScErg11 ([3]; strain AD3Δ ScErg11 Y140H vs AD3Δ, not corrected for expression, p < 0.001): 1.5 fold; agarose diffusion susceptibility ([6]; SC5314, no efflux pump inhibitor): susceptible |
| CC(C1CC1)C(O)(Cn1cncn1)c1ccc(Cl)cc1 (centres unmarked) [cyproconazole] | – | – | – | – | – | – | – | – | – | – | – | – | – | – | – | – | – | – | – | ~ 100 fold | – |
| CC1(C)CCC(Cc2ccc(Cl)cc2)C1(O)Cn1cncn1 (centres unmarked) [metconazole] | – | – | – | – | – | – | – | – | – | – | – | – | – | – | – | – | – | – | – | ~ 100 fold | – |
| CC(C)(C)C(O)(CCc1ccc(Cl)cc1)Cn1cncn1 (centres unmarked) [tebuconazole] | – | – | – | – | – | – | – | – | – | – | – | – | – | – | – | – | – | – | – | ~ 100 fold | – |

From article PMC8621857, “Structural Insights into the Azole Resistance of the Candida albicans Darlington Strain Using Saccharomyces cerevisiae Lanosterol 14α-Demethylase as a Surrogate” (Journal of Fungi, 2021)
